Here are results for two compounds from US20250090498A1, “TREATMENT OF PRIMARY CTLA-4 CHECKPOINT RELATED IMMUNODEFICIENCIES” (ADIENNE PHARMA & BIOTECH SA, priority 2023, published 2025).

In one data set the test system is AhR. The data set is described as follows: AhR luciferase reporter in mouse hepatoma cells H1L6.1c3. In kind it is cell-based. More on the design: dose or concentration left out as unconfirmed. Conditions: higher RLU at 2 h lasting until 24h. The procedure:
The ability of 1ME3CA was comparatively assessed here in mouse hepatoma cells (H1L6.1c3), kindly provided by Allison K. Ehrlich (Meyer Hall, University of California, Davis, United States), containing the stably integrated AhR xenobiotic responsive element driven by a firefly luciferase reporter plasmid, pGudLuc6.167. Cells were plated in MEMA (Gibco), supplemented with 10% fetal serum bovine and 1% penicillin-streptomycin solution, in 24-well plate and stimulated with different concentrations of either 3-IAld or 1ME3CA. Luciferase activity, calculated as relative light units (RLU) per microgram of protein and expressed as fold induction, was carried at 2 or 24 hours of exposure.

For data set [1] the following is noted: cited from earlier work.
A further data set relates to immune-mediated colitis. The data set can be described thus: immune-mediated colitis in NSG mice infused with hPBMCs and treated with anti-CTLA-4 mAb. In kind it is in vivo. How it is done: Humanized immunodeficient NSG mice were injected with human peripheral blood mononuclear cells from healthy donors and treated with anti-CTLA-4 monoclonal antibody. NOD.Cg-Prkdcscid Il2rgtm1Wjl/SzJ (NSG) mice, 8-10 weeks old, were injected intraperitoneally with human peripheral blood mononuclear cells (107) freshly isolated from healthy donors and treated intraperitoneally with 100 μg of anti-CTLA-4 mAb or human IgG as antibody control at days 0, 4, 8, 12 and 16.
3-IAld (18 mg/kg) was administered intragastrically every other day starting the day of cell infusion. Mice were monitored daily for overall mortality and body weight loss and sacrificed on day 21.

Data set [2] relates to disease progression in IL-10-deficient mice. The data set is described as follows: disease progression in 16 wk-old IL-10-deficient mice, 3-IAld for 4 weeks then 1% DSS. In kind it is in vivo, Il10−/− mice. Conditions: 3-IAld every other day for 4 weeks. The procedure: Sixteen week-old IL-10-deficient mice (Il10^−/−) were treated with 3-IAld every other day for 4 weeks, as illustrated in FIG. 10A. As a mimic of disease exacerbation, mice received 1% DSS after 3-IAld treatment and subsequently evaluated for weight change, intestinal pathology and epithelial integrity.

The next data set concerns LLC cells. The data set is described as follows: Lewis lung carcinoma (LLC) model with anti-PD-1 antibody. Type of data set: in vivo, C57BL/6 mice. The procedure: (§1) For FIGS. 12A-12E, C57BL/6 mice were subcutaneously injected with B16 tumor cells and administered 100 μg anti-CTLA-4 mAb or isotype control intraperitoneally four times at 3-day intervals up to 16 days. 3-IAld was administered intragastrically every other day. Mice were evaluated for (FIG. 12A) tumor growth, (FIG. 12B) histology (periodic acid-Schiff staining), (FIG. 12C) immunohistochemistry for CD8+ and CD4+ tumor-infiltrating lymphocytes (TIL), (FIG. 12D) number of positive TIL per high-power field, HPF and (FIG. 12E) Cxcl9 and Perforin expression. (FIGS. 12F-12J) C57BL/6 mice were orthotopically injected with LLC cells and administered 200 μg anti-PD-1 mAb or isotype control intraperitoneally five times at 3-day intervals up to 18 days. 3-IAld was administered intragastrically every other day. Mice were evaluated for (FIG. 12F) % survival, (FIG. 12G) lung weight, (FIG. 12H) lung gross pathology, (FIGS. 12I, 12J) CD4+CD25+Foxp3+ cells. Photographs were taken with a high-resolution microscope, ×40 magnification (scale bars, 100 μm). Each in vivo experiment includes three mice per group (nine mice in each experiment). Data are represented as mean±SEM. One-way analysis of variance, Bonferroni post hoc test. *P<0.05, **P<0.01, ***P<0.001.
(§2) The potential application of 3-IAld requires that its immunoregulatory activity would not impinge the tumor immunosurveillance. To this purpose, the effect of 3-IAld was assessed in the anti-CTLA-4-responsive B16 melanoma model (Renga et al, 2022).

For data set [3] the following is noted: enteric microparticles; cited from earlier work.
Data set [4] relates to graft-versus-host disease (GvHD). Conditions: mouse, in vivo; cited from earlier work.
Data set [5] in a line: toxicology, 3 weeks, H&E tissue pathology in naive C57BL/6 and AhR−/− mice. As to conditions: Eudragit-formulated, intragastrically every other day for 3 weeks, two concentrations. Type of data set: in vivo. The text has this: Eudragit-formulated 3-IAld (Puccetti et al, 2018) was given intragastrically every other day, at the doses indicated for 3 weeks to naive C57BL/6 and AhR−/− mice. At the end of treatment, mice were sacrificed, and tissue pathology blindly examined on different organs after Hematoxylin and Eosin (H&E) staining.

For another data set, the system named is B16 tumor cells. The data set can be described thus: anti-CTLA-4-responsive B16 melanoma model. Type of data set: in vivo, C57BL/6 mice. The procedure:
as §1, with “Data are represented as mean±SEM. One-way analysis of variance, Bonferroni post hoc test. *P<0.05, **P<0.01, ***P<0.001.” left out
as §2

The mark [6] stands for this setting: 3-IAld 18 mg/kg intragastrically every other day, 21 days.

With `Cn1cc(C(=O)O)c2ccccc21` [1-methylindole-3-carboxylic acid, 1-Methyl-1H-indole-3-carboxylic acid], in the data set on AhR, the “induction of luciferase activity (RLU, fold induction) versus 3-IAld” value is “more potent inducer of luciferase activity”.

As to `O=Cc1c[nH]c2ccccc12` [3-IAld, 1H-indole-3-carbaldehyde], in data set [1], the “acidity (based on its pKa)” value is “very weakly acidic” and the solubility in water entry is given as “slightly soluble”. Further, the “immune-mediated colitis (overall)” value in the data set with immune-mediated colitis (3-IAld 18 mg/kg) is “protects mice from immune-mediated colitis”. In the data set with immune-mediated colitis (setting [6]), the survival entry was “increased” and the weight loss result was “reduced”. Also, in the data set on immune-mediated colitis (3-IAld 18 mg/kg, colon, day 21), the histology score result was “improved” and the inflammatory histopathology result is “improved”. In addition, in the data set on immune-mediated colitis (3-IAld 18 mg/kg, day 21), the “barrier function (expression of ZO-1)” value is on record as “restored” and the “inflammatory cytokine gene expression” value was “decreased”. In data set [2], the colon inflammatory histopathology result is on record as “slow down”, the “disease progression (overall)” value is given as “slows disease progression” and the “loss of body weight” value is on record as “slow down”. Also, the “epithelial integrity and renewal” value in data set [2] (PAS and Ki-67) is reported as “maintain”. Moreover, the “therapeutic efficacy of anti-PD-1 antibody” value with LLC cells (3-IAld with 200 μg anti-PD-1 mAb) is listed as “did not interfere”. Also, in the data set with LLC cells (3-IAld with anti-PD-1 mAb), the “ability of anti-PD-1 antibody to increase survival” value is recorded as “did not prevent” and the “ability of anti-PD-1 antibody to reduce the recruitment of Foxp3+CD25+ Treg cells in the lung” value is “did not prevent”. In the data set with LLC cells (3-IAld with anti-PD-1 mAb, lung), the “ability of anti-PD-1 antibody to improve gross pathology” value was “did not prevent”. For the same compound, in the data set with LLC cells (3-IAld with anti-PD-1 mAb, lung weight), the “ability of anti-PD-1 antibody to decrease tumour growth” value was “did not prevent”. Also, the “inflammatory histopathology and barrier function” value in data set [3] is reported as “improved”. Moreover, in data set [4], the gut epithelial damage entry is recorded as “limited”, the inflammatory cytokine production result was “decreased” and the transepithelial bacterial translocation entry is reported as “reduced”. In addition, in data set [5], the “tissue pathology in different organs (H&E)” value is “absence of visible tissue pathology”. In the data set with B16 tumor cells (3-IAld with anti-CTLA-4 mAb), the “recruitment of CD4+ and CD8+ tumour-infiltrating lymphocytes” value is reported as “did not affect”. In addition, the “development of antitumor immunity / tumor immunosurveillance (overall)” value in the data set on B16 tumor cells (B16 and LLC models) is “does not interfere”.
